Test results published in the NIST ThermoML archive (doi:10.1016/j.jct.2014.01.020).

Columns and labels:
[1] = molar heat capacity at constant pressure; conditions: Liquid, Flow calorimetry
[2] = Liquid; for mass density: Vibrating tube method; for viscosity: 101 kPa, Concentric cylinders viscometry

C1CCCCC1 [cyclohexane]
Conditions | mass density, [2] [kg/m3] | molar heat capacity at constant pressure, [1] [J/K/mol]
293.15 K, 100 kPa | 778.4 | 154.7
293.15 K, 1000 kPa | 779.1 | –
293.15 K, 2000 kPa | 779.9 | –
293.15 K, 5000 kPa | 782.4 | 153.8
293.15 K, 10000 kPa | 786.3 | 152.5
293.15 K, 15000 kPa | 789.9 | 150.5
293.15 K, 20000 kPa | 793.4 | 149.7
293.15 K, 25000 kPa | – | 147.7
303.15 K, 100 kPa | 769 | –
303.15 K, 1000 kPa | 769.8 | –
303.15 K, 2000 kPa | 770.7 | –
303.15 K, 5000 kPa | 773.3 | –
303.15 K, 10000 kPa | 777.5 | –
303.15 K, 15000 kPa | 781.3 | –
303.15 K, 20000 kPa | 785.1 | –
303.15 K, 30000 kPa | 792.1 | –
303.15 K, 40000 kPa | 798.5 | –
313.15 K, 100 kPa | 759.7 | –
313.15 K, 1000 kPa | 760.3 | –
313.15 K, 2000 kPa | 761.2 | –
313.15 K, 5000 kPa | 764 | –
313.15 K, 10000 kPa | 768.4 | –
313.15 K, 15000 kPa | 772.6 | –
313.15 K, 20000 kPa | 776.6 | –
313.15 K, 25000 kPa | – | 154.6
313.15 K, 30000 kPa | 784.1 | –
313.15 K, 40000 kPa | 790.9 | –
323.15 K, 100 kPa | 750.1 | –
323.15 K, 1000 kPa | 750.8 | –
323.15 K, 2000 kPa | 751.8 | –
323.15 K, 5000 kPa | 754.8 | –
323.15 K, 10000 kPa | 759.5 | –
323.15 K, 15000 kPa | 763.9 | –
323.15 K, 20000 kPa | 768.2 | –
323.15 K, 30000 kPa | 776.1 | –
323.15 K, 40000 kPa | 783.2 | –
333.15 K, 100 kPa | 740.3 | –
333.15 K, 1000 kPa | 741.1 | –
333.15 K, 2000 kPa | 742.2 | –
333.15 K, 5000 kPa | 745.5 | –
333.15 K, 10000 kPa | 750.5 | –
333.15 K, 15000 kPa | 755.3 | –
333.15 K, 20000 kPa | 759.7 | –
333.15 K, 30000 kPa | 768.1 | –
333.15 K, 40000 kPa | 775.6 | –

[2]
Conditions | viscosity [mPa·s]
293.15 K | 0.98
303.15 K | 0.824
313.15 K | 0.701
323.15 K | 0.593
333.15 K | 0.522
